According to patent US7906477B2 (Genspera, Inc., priority 2002, dated 2011):
Square brackets hold non-standard residues; d marks the D form. Ends that are not written are not given here. Peptide text beside a SMILES is read from it. * marks the point of attachment. X1 = C/C=C(/C)C(=O)O[C@H]1C(C)=C2[C@H]([C@@H]1OC(=O)CCCCCCC)[C@@](C)(OC(C)=O)C[C@H](OC(=O)CCCCCCCCCCCN*)[C@@]1(O)[C@H]2OC(=O)[C@@]1(C)O; Tyr(3-NO2) = N[C@@H](Cc1ccc(O)c([N+](=O)[O-])c1)C(=O)O; AMC = Cc1cc(=O)oc2cc(N*)ccc12; Abz = aminobenzoic acid; Dap = NC[C@H](N)C(=O)O

Tests used:
[1] = test system: human prostate cancer cells; details: human prostate cancer cells in vitro; cited from earlier work
hK2 [2] = biological target: T1, hK2 (Homo sapiens, UniProt P20151); assay: on-bead digestion of PEGA-bound fluorescence-quenched peptides by hK2; format: biochemical; details: 4 μg/ml hK2, PEGA resin
T1 construct: made in house
Protocol: For screening, approximately 1 ml of resin (˜65,000 beads) was first suspended in methanol in a Petri dish and examined under transilluminant UV light (302 nm) to detect any falsely positive fluorescent beads prior to addition of protease. After removal of ˜40-50 beads, the resin was washed with water and finally suspended in 10 ml buffer in a glass Petri dish. After a final screen for false-positives, hK2 was added from a frozen stock solution to make 4 μg/ml final. Fluorescent beads were selected and removed with a micropipette, washed with 1 M NaCl, water, DMF, MeOH, water and stored in MeOH at −20° C.
Additionally, Walle and co-workers (Thorpe, D. S. and Walle, S. (2000) Biochem. Biophys. Res. Commun. 269:591-595) published data from a small combinatorial library to find linkers for the optimal display of peptide ligands to various protein targets. They reported that the insertion of a dipeptide consisting of a cationic residue together with a hydrophobic residue presents a general method for optimizing peptide display on solid phase beads. […] The test peptide Y′GKAFRL-Dap-F-K′-PEGA (SEQ ID NO:53) was synthesized and observed that the time required to generate clearly detectable fluorescence on the beads was reduced to 4-5 hours compared to 10-12 hours for the same peptide sequence lacking the Dap-F linker. […]

Balb-C mice = assay: in vivo toxicity, single and repeated intravenous injection; set-up: species or system mouse
Protocol: To determine in vivo toxicity of ac-GKAFRR-L12ADT (SEQ ID NO:41), Balb-C mice (Harlan) received a single intravenous injection of an increasing dose of prodrug. Mice were monitored for toxicity hourly for twelve hours and then daily×one week. Separate groups of three mice each received increasing doses of ac-GKAFRRL12ADT (SEQ ID NO:41). […] All animals receiving doses less than LD100 were alive and well up to 1 week after receiving a single dose. All procedures were performed according to protocols approved by the Johns Hopkins Animal Care and Use Committee.
Balb-C mice were treated in groups of 3with a single intravenous injection of increasing doses of the ac-GKAFRR-L12ADT (SEQ ID NO:41) prodrug to establish the dose that killed 100% of mice (i.e. LD100). […] All mice, however, tolerated a single intravenous dose of 3.67 μmoles/kg and this dose was then used for further dosing and pharmacokinetic studies.

[3] = pharmacokinetics after single intravenous dose, plasma levels by LC/MS/MS; format: in vivo, mouse; details: Balb-C mice, single intravenous dose 3.67 μmoles/kg
Protocol: FIG. 9 depicts pharamacokinetic analysis of GKAFRR-L12ADT (SEQ ID NO:44) following single intravenous injection of 3.67 μmole/kg. Mice were treated in groups of 3 and then sacrificed at indicated time points. Data represent average±standard error of plasma concentrations as determined by LC-MS analysis.
Calibration standards consisted of ac-GKAFRR-L12ADT prodrug, RL12ADT or L12ADT spiked into mouse plasma and plasma samples from treated mice were analyzed by liquid chromatography coupled to a quadrupolequadripole mass spectrometer (LC/MS/MS) [PESciex API 3000]. A multistep gradient elution HPLC method was used to separate the ac-GKAFRR-L12ADT prodrug from the free RL12ADT and L12ADT with eluent A=2 mM ammonium acetate with 0.1% formic acid 1% acetic acid in deionized water and eluent B=90% acetonitrile/1% acetic acid/[…]. Samples were eluted through a Zorbax SB-C18 Rapid Resolution column (2/1×30 mm, 3.5 μm) at a flow rate of 0.3 ml/min and gradient of 100% A to 100% B over 12 minutes. Calibration was done using extracted standards of ac-GKAFRR-L12ADT added to and then extracted from mouse plasma in a range of 0.001-10 μM, and linear regression analysis was used to generate best-fit lines, from which peak areas of samples were converted to concentration of prodrug. Peak areas of RL12ADT and L12ADT were below limit of detection at all time points and, therefore, calibration was not performed. Single-dose pharmacokinetics were assessed by noncompartmental analysis (Gibaldi, M. and Perroer, D. Pharmacokinetics, 2nd edition, p. 407-409. New York, 1982) The area under the curve from time zero to infinity (AUC0-∞) was calculated with the linear trapezoidal method (Gibaldi, M. and Perroer, D. Pharmacokinetics, 2nd edition, p. 407-409. New York, 1982)). The terminal half-life (T1/2) was determined from the terminal slope (ke) on a log-linear plot of concentration versus time.
To determine pharmacokinetic parameters for the hK2-activated thapsigargin prodrug, Balb-C mice (n=3/timepoint) were treated with a single intravenous dose of 3.67 μmoles/kg of the ac-GKAFRR-L12ADT (SEQ ID NO:41) prodrug. At various time points (5, 10, 30 minutes and 1, 1.5, 2, 3, 4, 6, 12, 24 hrs) mice were sacrificed after blood was obtained by cardiac puncture. After precipitating serum proteins with acetonitrile, supernatants were evaluated by LC-MS to determine concentrations of ac-GKAFRR-L12ADT (SEQ ID NO:41), R-L12ADT and L12ADT at each time points. Areas under the curve were converted to concentrations based on a standard curve that was linear for concentrations ranging from 1 nM to 10,000 nM. […] Both RL12ADT and L12ADT were below the lower limit of detection (i.e. <1 nM) for all time points, FIG. 6.

[4] = plasma stability in 50% human plasma; format: in vitro ADME; details: 50% fresh heparinized plasma, 24 hours, room temperature, HPLC and MALDI-TOF
Protocol: FIG. 5 depicts the stability of Ac-GKAFRR-L12ADT (SEQ ID NO:41) in human plasma after a 24 hour incubation, as determined by HPLC analysis. Ac-GKAFRR-L12ADT (SEQ ID NO:41) was incubated in 50% human plasma for 24 hours at room temperature. Peak 1 represents an unidentified plasma contaminant that was also present in control plasma. Peaks 2 and 3 both represent Ac-GKAFRR-L12ADT (SEQ ID NO:41) as confirmed by MALDI-TOF mass spectrometric analysis.
Mouse plasma was obtained from cardiac puncture of anesthetized mice prior to euthanization by CO2 overdose according to protocols approved by the Johns Hopkins Animal Care and Use Committee. Human plasma was obtained from discarded, pooled, and unlabeled clinical samples. Plasma was diluted to 50% in Tris buffer (50 mM Tris-HCl, 100 mM NaCl, pH 7.8). To this, test peptides/prodrugs were added to 250 or 500 μM final concentration. After the incubation period, one volume (200 μl) of acetonitrile was added to precipitate the protein fraction and the tube was centrifuged at 14,000 for 2 min. The supernatant was analyzed by C18-HPLC and the collected peaks were analyzed by MALDI-TOF as described above.
Arginine-containing peptides are potential substrates for the wide variety of other trypsin-like proteases that are present in the blood and may have residual activity in the blood. The plasma stability of an hK2 peptide substrate may therefore be limited and this would have significant consequences related to the development of an hK2 activated prodrug. Therefore, two fluorescence quenched hK2 peptide substrates peptides were incubated in 50% mouse or human plasma (diluted in PBS buffer) to determine stability using a plate-reader. As observed with arginine containing peptides from the SPOT analysis above, none of the arginine-containing, fluorescence quenched hK2peptide substrates were stable in human or mouse plasma. Fluorescence-quenched Y′GKAFRR-Dap-GK′ (SEQ ID NO:42) and Y′GKAFRRLGK′ (SEQ ID NO:21) (500 μM each) were hydrolyzed when incubated in 50% mouse or human plasma (FIG. 7). Mouse plasma degraded the peptides faster than human plasma (FIG. 7). […] In human plasma, more peptide remained after 3 hours (˜25%). […] The proteolytic activity from plasma was never affected by repeated freeze-thaw cycles or by storage of the mouse plasma alone at room temperature for several days.
To determine the plasma stability for the hK2 prodrug, the prodrug was incubated in 50% fresh heparinized (1%) plasma for 24 hours at room temperature, precipitated the proteins by adding one volume of 1% TFA in acetonitrile and analyzed the supernatant by HPLC. Unexpectedly, BPLC analysis after 24 hrs incubation in plasma yielded only a single peak corresponding to the hK2 prodrug (FIG. 5). MALDI-TOF MS of the isolated single peak confirmed the stability of the molecule.

hK2 [5] = assay: hK2, fluorescence-quenched peptides tested in solution; details: human, up to prolonged incubation
Cathepsin D = assay: Cathepsin D, 1 μg/ml
Cathepsin B = assay: Cathepsin B, 1 μg/ml
hK2 [6] = assay: 8 μg/ml hK2 in PBS buffer; details: human
hK2 [7] = biological target: T1, hK2; details: previously reported; cited from earlier work
Plasmin = assay: Plasmin, 1 μg/ml
Urokinase = assay: Urokinase, 1 μg/ml
[8] = 50% fresh heparinized (1%) plasma; 50% human plasma; details: room temperature, up to 24 hours
hK2 [9] = assay: hK2 (4 μg/ml) in 50 mM Tris, 0.1 M NaCl, pH 7.8; details: human, room temperature, up to 24 hours
[10] = five consecutive daily intravenous injections of 3.67 μmoles/kg

T1 sequence (P20151 25-261): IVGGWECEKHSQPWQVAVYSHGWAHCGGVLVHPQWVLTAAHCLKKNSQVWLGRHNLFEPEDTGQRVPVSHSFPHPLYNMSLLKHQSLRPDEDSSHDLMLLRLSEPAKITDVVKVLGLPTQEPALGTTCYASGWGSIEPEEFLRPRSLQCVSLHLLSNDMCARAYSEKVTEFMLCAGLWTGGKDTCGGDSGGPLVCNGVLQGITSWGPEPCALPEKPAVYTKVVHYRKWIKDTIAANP

CC=C(C)C(=O)OC1C(C)=C2C(C1OC(=O)CCCCCCC)C(C)(OC(C)=O)CC(OC(=O)CCCCCCCCCCCNC(=O)C(N)CC(C)C)C1(O)C2OC(=O)C1(C)O [L12ADT, 8-O-(12-[L-leucinoylamino]dodecanoyl)-8-O-debutanoylthapsigargin]
LD50 [1]: ~30 nM

Y′GKAFRLK′-PEGA: test hK2 peptide substrate on PEGA resin ([Tyr(3-NO2)]GKAFRLK(Abz)-{PEGA resin})
incubation time to yield clearly detectable fluorescent beads (hK2 [2]): 10 to 12 h

C/C=C(/C)C(=O)O[C@H]1C(C)=C2[C@H]([C@@H]1OC(=O)CCCCCCC)[C@@](C)(OC(C)=O)C[C@H](OC(=O)CCCCCCCCCCCNC(=O)[C@H](CC(C)C)NC(=O)[C@H](CCCNC(=N)N)NC(=O)[C@H](CCCNC(=N)N)NC(=O)[C@H](Cc1ccccc1)NC(=O)[C@H](C)NC(=O)[C@H](CCCCN)NC(=O)CNC(C)=O)[C@@]1(O)[C@H]2OC(=O)[C@@]1(C)O [ac-GKAFRR-L12ADT] (Ac-GKAFRRL-X1)
single intravenous dose tolerated by all mice (Balb-C mice; Balb-C mice, single intravenous dose): 3.67 µmol/kg | toxicity of repeated dosing (in words) (Balb-C mice; [10]): without any deaths or observable toxicity | weight loss over baseline (Balb-C mice; [10]): < 15% | stability in the serum in vivo (in words) [3]: highly stable to hydrolysis in the serum in vivo | half-life ([3]; mouse, plasma): 40.7 ± 1.2 min | AUC(0-inf) ([3]; mouse, plasma, read-out: area under the curve (converted)): 40.7 µM·h | Cmax ([3]; mouse, plasma): 36.8 ± 7.2 µM | plasma stability of the prodrug (in words) [4]: No degradation products could be identified

Y′GSKGHFKL-Dap-K′
not cleaved (hK2 [5]): not digested by hK2, even after prolonged incubation

Y′GSKGPFKL-Dap-K′
not cleaved (hK2 [5]): not digested by hK2, even after prolonged incubation

Y′GKAFRL-Dap-F-K′-PEGA: test peptide on PEGA resin with Dap-F linker ([Tyr(3-NO2)]GKAFRL[Dap]FK(Abz)-{PEGA resin})
incubation time to yield clearly detectable fluorescent beads (hK2 [2]): 4 to 5 h

Abz-GKAFRRLY′
not cleaved (Cathepsin D): No appreciable hydrolysis; relative rate 1 (approximately 0.1% digestion in 1 hour) | not cleaved (Cathepsin B): No appreciable hydrolysis; relative rate 1 (approximately 0.1% digestion in 1 hour)

Y′GSKGHFKL-Dap-F-K′
not cleaved (hK2 [6]): did not show any hydrolysis

Pro-Phe-Arg-{AMC}
Km (hK2 [7]): 40 µM | kcat (hK2 [7]): 0.92 s⁻¹

Ac-GKAFRR-L12ADT
cleaved bond (Plasmin): arginine-arginine | not cleaved (Urokinase): no activity on the prodrug; relative rate 1 (approximately 0.1% digestion in 1 hour) | not cleaved [8]: only a single peak corresponding to the hK2 prodrug after 24 hrs; no degradation products | not cleaved (Cathepsin D): No appreciable hydrolysis; relative rate 1 (approximately 0.1% digestion in 1 hour) | not cleaved (Cathepsin B): No appreciable hydrolysis; relative rate 1 (approximately 0.1% digestion in 1 hour) | cleaved bond (hK2 [9]): Arg-Leu
